The record followed here is patent US9908848B2, “Amide derivatives of lactam based N-acylethanolamine acid amidase (NAAA) inhibitors” (The Regents of the University of California, priority 2013, dated 2018).

As usually defined, the IC50 is the concentration needed to halve the response being measured.

The target of one experiment is T1, human NAAA (Homo sapiens, UniProt Q02083).
T1 construct: made in house; host or cells: HEK293 cells, stably transfected; soluble fraction after freeze/thaw
T1 sequence (Q02083 29-359): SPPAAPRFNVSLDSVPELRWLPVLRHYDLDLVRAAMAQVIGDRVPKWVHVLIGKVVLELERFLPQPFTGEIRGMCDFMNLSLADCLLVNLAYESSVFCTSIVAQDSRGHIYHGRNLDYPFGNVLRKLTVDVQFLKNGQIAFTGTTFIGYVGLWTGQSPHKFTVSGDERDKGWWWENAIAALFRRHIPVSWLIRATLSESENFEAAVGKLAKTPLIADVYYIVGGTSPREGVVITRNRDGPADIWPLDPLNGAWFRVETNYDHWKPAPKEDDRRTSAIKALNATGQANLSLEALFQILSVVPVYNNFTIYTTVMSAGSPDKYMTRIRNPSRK
The experiment can be described thus: Fluorogenic h-NAAA assay. The class given is biochemical. The note with it: @ 2.5 μM; read-out: h-NAAA Fluorogenic assay % inhib. The method, then:
Hek293 cells stably transfected with the human NAAA coding sequence cloned from a human spleen cDNA library were used as enzyme source. Recombinant HEK-hNAAA pellets were resuspended in homogenizing buffer, and sonicated. Samples were centrifuged at 800×g for 15 min at 4° C. and the supernatants were ultracentrifuged at 12,000×g for 30 min at 4° C. The pellets were resuspended in PBS pH 7.4 on ice and subjected to a freeze/thaw cycle at −80° C. (two freeze/thaw cycles at −80° C. for Examples 34-37). The suspension was finally centrifuged at 105,000×g for 1 h at 4° C. Protein concentration was measured and samples stored at −80° C. until use.
The assay was run in Optiplate 96-wells black plates, in a total reaction volume of 200 μL. NAAA protein preparation (4.0 μg for Examples except 34-37, which were 20.0 μg) was pre-incubated for 10 min with various concentrations of test compounds or vehicle control (5% DMSO) in 100 mM citrate/phosphate buffer (pH 4.5) containing 3.0 mM DTT, 0.1% Triton X-100, 0.05% BSA, 150 mM NaCl. N-(4-methyl-2-oxo-chromen-7-yl)-hexadecanamide was used as a substrate (5.0 μM) and the reaction carried over for 30 min at 37° C. The samples were then read in a Perkin Elmer Envision plate reader using an excitation wavelength of 360 nm and emission 460 nm. IC50 values were calculated by non-linear regression analysis of log [concentration]/inhibition curves using GraphPad Prism 5 (GraphPad Software Inc., CA—USA) applying a standard slope curve fitting.
Regarding `CCCCc1ccc(C(=O)N[C@H]2CNC2=O)cc1` [Example 33, 4-Butyl-N-[(3S)-2-oxoazetidin-3-yl]-benzamide], the inhibition at 2.5 µM was 16%.

The same experiment, now with this note: @ 50 μM; read-out: h-NAAA Fluorogenic assay % inhib.
As for `O=C(CCc1ccccc1)N[C@H]1CNC1=O` [Example 19, 3-Phenyl-N-[(3S)-2-oxoazetidin-3-yl]-propanamide], the inhibition at 50 µM amounted to 15%.

With `C[C@@H]1NC(=O)[C@H]1NC(=O)CCc1ccc(-c2ccccc2)cc1` [Example 29, N-[(2S,3S)-2-methyl-4-oxo-azetidin-3-yl]-3-(4-phenylphenyl)-propanamide], the inhibition at 50 µM was 60%.

Staying with this experiment, now noted: @100 μM.
For the molecule `O=C(CCc1ccccc1)N[C@@H]1CNC1=O` [Example 20, 3-Phenyl-N-[(3R)-2-oxoazetidin-3-yl]-propanamide], the “h-NAAA Fluorogenic assay (n.a.)” value was “n.a. (n.a. = <10% inhib.@100 μM)”.

With `O=C(CCc1ccc(-c2ccccc2)cc1)N[C@H]1CNC1=O` [Example 18, 3-(4-Phenylphenyl)-N-[(3S)-2-oxoazetidin-3-yl]-propanamide], the “h-NAAA Fluorogenic assay (n.a.)” value is “n.a. (n.a. = <10% inhib.@100 μM)”.

Consider `O=C(CCCCc1ccccc1)N[C@@H]1CNC1=O` [Example 26, 5-Phenyl-N-[(3R)-2-oxoazetidin-3-yl]-pentanamide], for which the “h-NAAA Fluorogenic assay (n.a.)” value is “n.a. (n.a. = <10% inhib.@100 μM)”.

The same experiment, now with this note: recombinant HEK-hNAAA preparation.
With `O=C(CCCCCc1ccccc1)N[C@H]1CNC1=O` [Example 31, 6-Phenyl-N-[(3S)-2-oxoazetidin-3-yl]-hexanamide], the IC50 was found to be 13400 nM.

Turning to `CCCCCCC(=O)N[C@H]1CNC1=O` [Example 21, N-[(3S)-2-Oxoazetidin-3-yl]-heptanamide], the half-maximal inhibitory concentration (IC50) amounted to 7830 nM.

In the case of `O=C(CCCCCC1CCCCC1)N[C@H]1CNC1=O` [Example 17, 6-Cyclohexyl-N-[(3S)-2-oxoazetidin-3-yl]-hexanamide], the IC50 worked out at 275 nM.

In the case of `CCCCCCCCC(=O)N[C@@H]1C(=O)N[C@H]1C` [Example 28, N-[(2S,3S)-2-methyl-4-oxo-azetidin-3-yl]-nonanamide], the IC50 was 380 nM.

Take `O=C(CCCc1ccccc1)N[C@H]1CNC1=O` [Example 32, 4-Phenyl-N-[(3S)-2-oxoazetidin-3-yl]-butanamide]: the IC50 amounted to 110000 nM.

Turning to `O=C(CCCCc1ccccc1)N[C@H]1CNC1=O` [Example 25, 5-Phenyl-N-[(3S)-2-oxoazetidin-3-yl]-pentanamide], the IC50 stood at 33900 nM.

`CCCCCCCC(C)C(=O)N[C@H]1CNC1=O` (mixture of isomers) [Example 36, (2R)-2-methyl-N-[(3S)-2-oxoazetidin-3-yl]nonanamide and (2S)-2-methyl-N-[(3S)-2-oxoazetidin-3-yl]nonanamide]: the IC50 was 220 nM.

In the case of `CCCCCCCCC(=O)N[C@@H]1CNC1=O` [Example 4, N-[(3R)-2-Oxoazetidin-3-yl]-nonanamide], the IC50 was 40000 nM.

In the case of `CCCCCCCC(=O)N[C@H]1CNC1=O` [Example 22, N-[(3S)-2-Oxoazetidin-3-yl]-octanamide], the IC50 was determined as 930 nM.

For `CCCc1ccc(CC(=O)N[C@H]2CNC2=O)cc1` [Example 35, N-[(3S)-2-oxoazetidin-3-yl]-2-(4-propylphenyl)acetamide], the IC50 worked out at 15600 nM.

On to `CCCCCCCCCCC(=O)N[C@H]1CNC1=O` [Example 24, N-[(3S)-2-Oxoazetidin-3-yl]-undecanamide], for which the IC50 stood at 43 nM.

`CCCCC/C=C\CC(=O)N[C@H]1CNC1=O` [Example 6, (Z)—N-[(3S)-2-Oxoazetidin-3-yl]-non-3-enamide]: the IC50 stood at 1940 nM.

Take `CCCCCCCC(C)(C)C(=O)N[C@H]1CNC1=O` [Example 37, 2,2-dimethyl-N-[(3S)-2-oxoazetidin-3-yl]nonanamide]: the IC50 came out at 758 nM.

With `CCCC[C@H]1CC[C@H](C(=O)N[C@H]2CNC2=O)CC1` [Example 34, (1r,4R)-4-butyl-N—((S)-2-oxoazetidin-3-yl)cyclohexanecarboxamide], the IC50 came out at 4020 nM.

Another experiment has as its target T2, r-NAAA (Rattus norvegicus, UniProt Q5KTC7).
T2 construct: Lysosomal NAAA protein preparation was obtained by homogenizing male Sprague-Dawley rat lungs; tissue Charles River; host or cells: male Sprague-Dawley rat lung, soluble lysosomal fraction
T2 sequence (Q5KTC7 34-362): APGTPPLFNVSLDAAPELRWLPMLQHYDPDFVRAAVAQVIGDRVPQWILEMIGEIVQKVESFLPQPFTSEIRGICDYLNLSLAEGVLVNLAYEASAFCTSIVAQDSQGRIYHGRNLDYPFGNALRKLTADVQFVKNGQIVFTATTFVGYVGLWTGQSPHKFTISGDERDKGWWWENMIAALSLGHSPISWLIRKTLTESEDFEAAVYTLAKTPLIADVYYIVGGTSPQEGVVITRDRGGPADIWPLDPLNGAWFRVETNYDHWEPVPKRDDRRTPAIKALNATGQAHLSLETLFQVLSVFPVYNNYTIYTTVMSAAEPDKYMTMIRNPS
The experiment can be described thus: UPLC/MS r-NAAA assay. Type of experiment: biochemical. The following applies: @ 3 μM; read-out: r-NAAA UPLC/MS assay % inhib. The method, then:
Lysosomal NAAA protein preparation was obtained by homogenizing male Sprague-Dawley rat lungs (Charles River) in 20 mM Tris-HCl buffer pH 7.4 containing 0.32M sucrose. Samples were centrifuged at 800×g for 15 min at 4° C. Supernatants were centrifuged at 12,000×g for 30 min at 4° C. Pellets were then resuspended in PBS pH 7.4 and subjected to a freeze/thaw cycle at −80° C. The suspension was finally centrifuged at 105,000 g for 1 h at 4° C. The supernatant was used in enzymatic assays.
NAAA preparations were pre-incubated with various concentrations of test compounds or vehicle control in 100 mM NaH2PO4/Citrate buffer, 1% Triton-X, 3 mM DTT (pH 4.5) for 30 min at 37° C. Samples were incubated with heptadecenoylethanolamide (50 μM, Avanti Polar Lipids) at 37° C. for 30 min. The reaction was terminated by addition of cold methanol containing heptadecanoic acid (NuCheck Prep) as internal standard. Samples were analyzed by UPLC/MS (Acquity, Waters). Heptadecenoic and heptadecanoic acids were eluted on an Acquity UPLC BEH C18 column (50 mm length, 2.1 mm i.d., 1.7 μm pore size, Waters) isocratically at 0.5 mL/min for 1.5 min with a solvent mixture of 95% methanol and 5% H2O, both containing 0.25% Acetic Acid and 5.0 mM ammonium acetate. The column temperature was 40° C. Electrospray ionization was in the negative mode, capillary voltage was 0.5 kV, cone voltage was […], desolvation temperature was 500° C. N2 was used as drying gas at a flow rate of 1000 L/hour and a temperature of 500° C. The [M−H]^− ion was monitored in the selected-ion monitoring mode (m/z values: heptadecenoic acid 267.37, heptadecanoic acid 269.37). Calibration curves were generated using commercial heptadecenoic acid (NuCheck Prep) Inhibition of NAAA activity was calculated as reduction of heptadecenoic acid in the samples compared to vehicle controls. IC50 values were calculated by non-linear regression analysis of log [concentration]/inhibition curves using GraphPad Prism 5 (GraphPad Software Inc., CA—USA) applying a standard slope curve fitting.
`O=C(CCCCCCc1ccccc1)N[C@@H]1CNC1=O` [Example 8, 7-Phenyl-N-[(3R)-2-Oxoazetidin-3-yl]-heptanamide]: the inhibition at 3 µM was 30%.

Regarding `O=C(N[C@H]1CNC1=O)c1ccc(-c2ccccc2)cc1` [Example 1, 4-Phenyl-N-[(3S)-2-oxoazetidin-3-yl]-benzamide], the inhibition at 3 µM was 15%.

As for `O=C(N[C@@H]1CNC1=O)c1ccc(-c2ccccc2)cc1` [Example 2, 4-Phenyl-N-[(3R)-2-oxoazetidin-3-yl]-benzamide], the inhibition at 3 µM was found to be 10%.

In the case of `O=C(N[C@@H]1CNC1=O)c1ccc(OCc2ccccc2)cc1` [Example 12, 4-Benzyloxy-N-[(3R)-2-oxoazetidin-3-yl]-benzamide], the inhibition at 3 µM amounted to 10%.

Staying with this experiment, now noted: @ 30 μM; read-out: r-NAAA UPLC/MS assay % inhib.
For the molecule `O=C(C/C=C/c1ccccc1)N[C@H]1CNC1=O` [Example 15, (E)-N-[(3S)-2-Oxoazetidin-3-yl]-4-phenyl-but-3-enamide], the inhibition at 30 µM worked out at 20%.

For `O=C(N[C@H]1CNC1=O)c1ccc(OCc2ccccc2)cc1` [Example 11, 4-Benzyloxy-N-[(3S)-2-oxoazetidin-3-yl]-benzamide], the inhibition at 30 µM amounted to 10%.

Regarding `O=C(CCCOCc1ccccc1)N[C@@H]1CNC1=O` [Example 10, 4-Benzyloxy-N-[(3R)-2-oxoazetidin-3-yl]-butanamide], the inhibition at 30 µM was found to be 10%.

Still in this experiment, the particulars now being: @100 μM.
On to `O=C(CCCOCc1ccccc1)N[C@H]1CNC1=O` [Example 9, 4-Benzyloxy-N-[(3S)-2-oxoazetidin-3-yl]-butanamide], for which the “r-NAAA UPLC/MS assay (n.a.)” value is “n.a. (n.a. = <10% inhib.@100 μM)”.

On to `CC1(C(=O)N[C@H]2CNC2=O)CCCCC1` [Example 13, 1-Methyl-N-[(3S)-2-oxoazetidin-3-yl]-cyclohexane-carboxamide], for which the “r-NAAA UPLC/MS assay (n.a.)” value is “n.a. (n.a. = <10% inhib.@100 μM)”.

Regarding `CC1(C(=O)N[C@@H]2CNC2=O)CCCCC1` [Example 14, 1-Methyl-N-[(3R)-2-oxoazetidin-3-yl]-cyclohexane-carboxamide], the “r-NAAA UPLC/MS assay (n.a.)” value is listed as “n.a. (n.a. = <10% inhib.@100 μM)”.

Staying with this experiment, now noted: rat lung lysosomal NAAA preparation.
In the case of `O=C(CCCCCC1CCCCC1)N[C@H]1CNC1=O` [Example 17, 6-Cyclohexyl-N-[(3S)-2-oxoazetidin-3-yl]-hexanamide], the IC50 came out at 130 nM.

Molecule `CCCCC/C=C\CC(=O)N[C@H]1CNC1=O` [Example 6, (Z)—N-[(3S)-2-Oxoazetidin-3-yl]-non-3-enamide] had an IC50 of 680 nM.

For the molecule `O=C(CCCCC1CCCCC1)N[C@H]1CNC1=O` [Example 16, 5-Cyclohexyl-N-[(3S)-2-oxoazetidin-3-yl]-pentanamide], the IC50 is 1000 nM.
